Structures can show the parent of a compound that is named as a salt. Where two headings read alike, the source gives them in different places.
Columns and labels:
[1] = Neurotoxicity in mice (rotorod ataxia test), i.p.; settings: mouse, in vivo, ip, MICE TD50, mice
Description: (§1) Neurotoxicity of the claimed agents was also assessed in mice (i.p. administration) by the rotorod ataxia test and/or in rats (p.o. administration) by positional sense test and gait stance test. […] The term quantitating the neurotoxicity is the medial neurological toxic dose (TD50), was determined in the above tests.

mice [2] = test: Neurotoxicity in mice (rotorod ataxia test), i.p.; settings: mice, i.p.
Description: as §1

mice [3] = test: Maximal electroshock (MES) model in mice, i.p.;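 as to all read-outs here: Electroshock-induced convulsion model serving to demonstrate antiepileptic efficacy against generalized and partial seizures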; format: in vivo; settings: for ED50: Mus musculus, ip; for ED50 / MICE MES ED50: Table 15; for MICE MES ED50: i.p.
mice [4] = settings: for ED50: Mus musculus, ip; for MICE scMet ED50: i.p.
rats [5] = test: Neurotoxicity in rats (positional sense test and gait stance test), p.o.; settings: rats, p.o.
Description: as §1

in vivo = settings: rat, in vivo, po
Description: as §1

rats [6] = test: Maximal electroshock (MES) model in rats, p.o.;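 as to all read-outs here: rat MES model gauging antiepileptic efficacy versus generalized and partial seizures after oral dosing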; format: in vivo; settings: Table 15; for RATS MES 50: p.o.
[7] = tested on: mechanically dissociated neonatal rat cerebellum; test: Reversal of NMDA induced cell death in cultures of neonatal rat cerebellum; format: cell-based; settings: for SURVIVING CELL IN CULTURE: relative to control (100%); for PERCENT PROTECTION: Cell Survival minus the NMDA effect; for EFFECTIVE PROTECTION: X x 100/70
Description: The cerebellum was aseptically dissociated from 6 or 7-day old rat pups and placed in a 15ml sterile plastic conical tube containing 3ml of Dulbecco's modified Eagle's medium (DMEM) with a high glucose concentration ([…]) and 2mM (v/v) L-glutamine and an antibiotic antimitotic mixture. The cerebella were then dissociated after 20-25 passages through a sterile 13 gauge, 10cm long stainless steel needle attached to a 5ml syringe with an inserted 45 micrometer pore nylon sieve. The dissociated cells were centrifuged at 200g for 5 minutes. The supernatant was discarded and the cells resuspended in medium enriched with 15% (v/v) heat inactivated fetal calf serum. Cell viability was determined by the tryptan blue exclusion test.
Cells were plated at a density of 200/mm^2 on poly-L-lysine coated surfaces. Poly-L-lysine coated glass coverslips were prepared at least one hour in advance of plating by immersing sterile coverslips in sterile distilled water solution containing 15 microgram/ml poly-L-lysine, and washing in sterile water just prior to use. The plated cells were covered with enriched medium and incubated at 37°C in an atmosphere of 5% CO2 in air and 97% humidity. After three days in culture, the media was replaced with media containing the desired test compound. Each test compound was tested in duplicate. Toxic-dose response was determined for each compound.
Four groups were run in each set of experiments; • I. Control, consisting of enriched media alone, • II. N-methyl-D-aspartate (NMDA, 1mM for 3 hours) as the cytotoxic challenge, • III. Test compound plus NMDA, and • IV. Positive control, spermine(0.01 micromoles) plus NMDA.
Nerve cell survival was evaluated by phase contrast microscopy and tryptan blue staining after 24 hours.
Surviving cells in culture are measured relative to control (100%), as described above. Percent protection is the Cell Survival for the test compound minus the NMDA effect. Thus, maximal protection is 100% minus 30% NMDA effect i.e. […]. The Effective Protection was calculated as the percent of the Percent Protection (X) divided by the maximal protection value (e.g. X x 100/70).

Male mongolian gerbils = test: Global brain ischemia in gerbils (CA1 pyramidal neurons); format: in vivo; settings: 3 injections, fraction of hippocampi protected from ischemia, 14 days post-ischemia
Description: Each artery was clamped for 5 minutes with aneurysm clips to produce global brain ischemia. The anesthesia was discontinued upon clamping. After 5 minutes the clamps were removed and the wound closed with skin clips.
For treatment, the test compound or vehicle were injected intra-peritoneally (ip) in a volume of 50 microliters of solvent per 10g body weight. The first injection was given two minutes after clamp removal, and thereafter daily for the next 2 post-operative days (total of 3 injections).
Seven groups each of 4-8 animals were compared: • I. Control; (sham- or unoperated and saline treated), • II. Vehicle treated, unoperated (when solvent is other than saline), • III. Ischemia - untreated or saline treated), • IV. Ischemia - vehicle treated (when solvent is other than saline), • V. Ischemia - Test compound treated, one sub-group per concentration tested, • VI. Ischemia and pentobarbital (40 mg/kg) as positive control).
Analysis of neuronal damage was performed 14 days post-ischemia by counting pyramidal neurons throughout the CA1 layer of the anterior hippocampus in […] thick (paraffin) coronal brain sections stained with hematoxylin and erosin.
Percent Protection values represent the fraction of hippocampi protected from ischemia in a group of animals treated with the stated dose of compound.

| SMILES | TD50 ([1]; Table 16) | MICE TD50 (mice [2]; Table 15) | ED50 (mice [3]) | MICE MES ED50 (mice [3]) | RATS TD50 (rats [5]; Table 16) | TD50 (in vivo) | TD50 ([1]; Table 15) | RATS MES 50 (rats [6]) | other results |
| --- | --- | --- | --- | --- | --- | --- | --- | --- | --- |
| NC(=O)CNC1CCc2ccc(F)cc21 (racemic) [Example 5, (rac)-6-Fluoro-N-(2-acetamido)-1-aminoindan.HCl] | 138 mg/kg | >300 mg/kg | < 100 mg/kg | 58 mg/kg | – | – | – | – | activity in the MES model in mice (mice [3]; statement in words): showed activity; ED50 (mice [4]; read-out: MICE scMet ED50, mice, i.p., Table 16): > 200 mg/kg |
| NC(=O)CN[C@@H]1CCc2ccccc21 [Example 1, (R)-N-(2-Aeetamido)-1-aminoindan.HCl] | 198 mg/kg | – | 77 mg/kg | – | >50 mg/kg | > 50 mg/kg | 198 mg/kg | 50 mg/kg | ED50 (mice [4]; read-out: MICE scMet ED50): > 200 mg/kg |
| Cl.N[C@@H]1CCc2ccc(O)cc21 [Example 35, (R)-6-Hydroxy-1-aminoindan.HCl] | – | – | – | – | – | – | – | – | SURVIVING CELL IN CULTURE ([7]; 0.005 µM + NMDA 1mM for 3 hours): 60%; PERCENT PROTECTION ([7]; 0.005 µM + NMDA): 30%; EFFECTIVE PROTECTION ([7]; 0.005 µM + NMDA): 43%; SURVIVING CELL IN CULTURE ([7]; 0.010 µM + NMDA 1mM for 3 hours): 34%; PERCENT PROTECTION ([7]; 0.010 µM + NMDA): 4%; EFFECTIVE PROTECTION ([7]; 0.010 µM + NMDA): 6%; SURVIVING CELL IN CULTURE ([7]; 0.100 µM + NMDA 1mM for 3 hours): 30%; PERCENT PROTECTION ([7]; 0.100 µM + NMDA): 0%; EFFECTIVE PROTECTION ([7]; 0.100 µM + NMDA): 0%; PERCENT PROTECTION (Male mongolian gerbils; 0.1 mg/kg ip): 25.0%; PERCENT PROTECTION (Male mongolian gerbils; 1.0 mg/kg ip): 37.5%; PERCENT PROTECTION (Male mongolian gerbils; 10.0 mg/kg ip): 37.5% |
| Cl.NC(=O)CN[C@@H]1CCc2ccccc21 [D, (R)-Indanylglycinamide-HCl salt] | – | 127 mg/kg | – | 83 mg/kg | >180 mg/kg | – | – | 105 mg/kg | RATS TD50 (rats [5]; Table 15): >180 mg/kg; MICE TD50 (mice [2]; Table 16): 127 mg/kg; MICE scMet ED50 (mice [4]; Table 16): >130 mg/kg |
| C#CCN[C@H]1CCc2ccccc21.CS(=O)(=O)O [H, (S)-N-propargyl-1-aminoindan mesylate salt] | – | – | ≤ 50 mg/kg | – | – | – | – | – | ED50 (mice [4]; read-out: MICE scMet ED50): > 200 mg/kg; ED50 (rats [6]; Rattus norvegicus, po, read-out: RATS MES 50, rats, p.o.): ≤ 50 mg/kg |
| CN[C@H]1CCc2ccccc21 [Example 14, (S)-N-Methyl-1-aminoindan.HCl] | 100 mg/kg | – | – | – | >142 mg/kg | > 142 mg/kg | 100 mg/kg | – | – |
| NC(=O)CNC1CCc2ccccc21 (racemic) [Example 3, (rac)-N-(2-Acetamido)-1-aminoindan.HCl] | 127 mg/kg | >100 mg/kg | 83 mg/kg | <100 mg/kg | – | > 50 mg/kg | 127 mg/kg | <50 mg/kg | MICE TD50 (mice [2]; Table 16): 126 mg/kg; MICE scMet ED50 (mice [4]; Table 16): 36 mg/kg; MICE scMet ED50 (mice [4]; Table 16, listed as 3*): >130 mg/kg |

Reference: patent EP0738149B1 (priority 1994, dated 1995)
